In EP0856015B1, “NEW POLYACRYLAMIDE MATRICES IN ELECTROPHORETIC AND CHROMATOGRAPHIC TECHNIQUES” (RIGHETTI, Pier Giorgio, priority 1995, dated 1997):

Key:
[1] = Partitioning of monomers between water and n-octanol, aqueous phase analysed by CZE; type: physicochemical; conditions: 2 mM monomer, 25°C
Description: To that aim, aqueous solutions of these monomers have been subjected to partitioning against n-octanol. After partitioning, the aqueous phase is analyzed by capillary electrophoresis and the molar ratio of the various monomers in the two phases determined. […] Hydrophobicity scale of acrylamide and N-substituted derivatives. Each monomer was dissolved in aqueous solution (3.5 mL) at a concentration of 2 mM and mixed with an equal volume of n-octanol for 2 min. After phase separation, the aqueous solution is centrifuged for 75 min at 2000 rpm. All operations at 25°C. The solution, after dilution, is added with internal standard (2.5 mM of pK 9.3 Immobiline) and analyzed by CZE. For abbreviations see Fig. 1. Other abbreviations: MMA: […] ACM: N-acryloyl morpholine; […]: dideoxy […].

[2] = Hydrolysis kinetics of free monomers under mild alkaline conditions, residual monomer quantified by capillary electrophoresis; conditions: 0.1N NaOH, 70°C

hydrophilicity (from partition coefficients P) [1]	logP ([1]; read-out: partition coefficient P (converted))	degradation kinetics [2]	hydrolysis constant (K) [2] [M⁻¹ s⁻¹]	hydrolysis constant, times smaller than that of acrylamide [2] [times]	Structure (SMILES)
close to that of acrylamide	-0.62	–	–	–	C=CC(=O)NCCCCO [AAB]
twice as hydrophilic as acrylamide	–	first order kinetics	0.00013	8	C=CC(=O)NCCCO [AAP]
–	–	a more rapid degradation kinetic	–	–	C=CC(=O)N1CCOCC1 [N-acryloyl morpholine, reference compound]
by far the most hydrophilic molecule	–	zero-order kinetics	–	–	C=CC(=O)NC(CO)(CO)CO [Trisacryl, N-acryloyl-2-amino-2-hydroxymethyl-1,3 propandiol, reference compound]
